# Source: the supplement of paper PMC5908809
# Experiments:
# SNK-6 (IL-2 2.5 ng/mL) [1] = experiment: percent inhibition of viability; higher = more inhibition; details: 72 h
# KHYG-1 (IL-2 2.5 ng/mL) [2] = experiment: as above; details: 72 h
# [3] = test system: normal primary NK cells, pool 3 (3 donors) (IL-2 2.5 ng/mL); experiment: as above; details: 72 h
# IMC-1 (IL-2 20 ng/mL) [4] = experiment: as above; details: 72 h
# NK-92 (IL-2 2.5 ng/mL) [5] = experiment: as above; details: 72 h
# [6] = test system: normal primary NK cells, pool 1 (3 donors) (IL-2 2.5 ng/mL); experiment: as above; details: 72 h
# NKL (IL-2 2.5 ng/mL) [7] = experiment: as above; details: 72 h
# [8] = test system: normal primary NK cells, pool 1 (3 donors), resting (IL-2 0 ng/mL); experiment: as above; details: 72 h
# KAI3 (IL-2 2.5 ng/mL) [9] = experiment: as above; details: 72 h
# NK-YS (IL-2 2.5 ng/mL) [10] = experiment: as above; details: 72 h
# DERL-7 (IL-2 2.5 ng/mL) [11] = experiment: as above; details: 72 h
# [12] = test system: normal primary NK cells, pool 2 (3 donors) (IL-2 2.5 ng/mL); experiment: as above; details: 72 h
# YT (IL-2 2.5 ng/mL) [13] = experiment: as above; details: 72 h
# [14] = test system: normal NK cells expanded with K562-aAPC; experiment: as above; details: 72 h, IL-2 2.5 ng/mL
# Description: (§1)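 Drug sensitivity and resistance testing on K562-aAPC-expanded normal NK cells: 5 concentrations (10-fold steps over a 10,000-fold range), 72 h at 37 °C, viability by CellTiter-Glo normalised to DMSO and benzethonium chloride controls; DSS from the fitted curve.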
# [15] = test system: normal NK cells expanded with K562-aAPC; experiment: drug sensitivity score (DSS) (DSS units); higher = more sensitive; extreme values may be limits of the assay; details: 72 h; IL-2 2.5 ng/mL
# Description: as §1
# SNK-6 (IL-2 2.5 ng/mL) [16] = experiment: as above; details: 72 h
# KHYG-1 (IL-2 2.5 ng/mL) [17] = experiment: as above; details: 72 h
# [18] = test system: normal primary NK cells, pool 3 (3 donors) (IL-2 2.5 ng/mL); experiment: as above; details: 72 h
# IMC-1 (IL-2 20 ng/mL) [19] = experiment: as above; details: 72 h
# NK-92 (IL-2 2.5 ng/mL) [20] = experiment: as above; details: 72 h
# [21] = test system: normal primary NK cells, pool 1 (3 donors) (IL-2 2.5 ng/mL); experiment: as above; details: 72 h
# NKL (IL-2 2.5 ng/mL) [22] = experiment: as above; details: 72 h
# [23] = test system: normal primary NK cells, pool 1 (3 donors), resting (IL-2 0 ng/mL); experiment: as above; details: 72 h
# KAI3 (IL-2 2.5 ng/mL) [24] = experiment: as above; details: 72 h
# NK-YS (IL-2 2.5 ng/mL) [25] = experiment: as above; details: 72 h
# DERL-7 (IL-2 2.5 ng/mL) [26] = experiment: as above; details: 72 h
# [27] = test system: normal primary NK cells, pool 2 (3 donors) (IL-2 2.5 ng/mL); experiment: as above; details: 72 h
# YT (IL-2 2.5 ng/mL) [28] = experiment: as above; details: 72 h
structure (smiles),measurement,setting,value
O=C(CCCCCCNC(=O)c1cnc(N(c2ccccc2)c2ccccc2)nc1)NO [Rocilinostat] (max concentration tested 10000 nM),percent inhibition of viability,SNK-6 (IL-2 2.5 ng/mL) [1]; 1 nM,-5.08%
same,percent inhibition of viability,SNK-6 (IL-2 2.5 ng/mL) [1]; 10 nM,-17.2%
same,percent inhibition of viability,SNK-6 (IL-2 2.5 ng/mL) [1]; 100 nM,-1.48%
same,percent inhibition of viability,SNK-6 (IL-2 2.5 ng/mL) [1]; 1000 nM,31.4%
same,percent inhibition of viability,SNK-6 (IL-2 2.5 ng/mL) [1]; 10000 nM,97.9%
same,percent inhibition of viability,KHYG-1 (IL-2 2.5 ng/mL) [2]; 1 nM,3.34%
same,percent inhibition of viability,KHYG-1 (IL-2 2.5 ng/mL) [2]; 10 nM,0.58%
same,percent inhibition of viability,KHYG-1 (IL-2 2.5 ng/mL) [2]; 100 nM,-3.42%
same,percent inhibition of viability,KHYG-1 (IL-2 2.5 ng/mL) [2]; 1000 nM,47.2%
same,percent inhibition of viability,KHYG-1 (IL-2 2.5 ng/mL) [2]; 10000 nM,101%
same,percent inhibition of viability,[3]; 1 nM,-3.33%
same,percent inhibition of viability,[3]; 10 nM,-0.54%
same,percent inhibition of viability,[3]; 100 nM,6.26%
same,percent inhibition of viability,[3]; 1000 nM,8.12%
same,percent inhibition of viability,[3]; 10000 nM,96.7%
same,percent inhibition of viability,IMC-1 (IL-2 20 ng/mL) [4]; 1 nM,-4.44%
same,percent inhibition of viability,IMC-1 (IL-2 20 ng/mL) [4]; 10 nM,-8.29%
same,percent inhibition of viability,IMC-1 (IL-2 20 ng/mL) [4]; 100 nM,-0.57%
same,percent inhibition of viability,IMC-1 (IL-2 20 ng/mL) [4]; 1000 nM,8.19%
same,percent inhibition of viability,IMC-1 (IL-2 20 ng/mL) [4]; 10000 nM,100%
same,percent inhibition of viability,NK-92 (IL-2 2.5 ng/mL) [5]; 1 nM,-11.1%
same,percent inhibition of viability,NK-92 (IL-2 2.5 ng/mL) [5]; 10 nM,-18.3%
same,percent inhibition of viability,NK-92 (IL-2 2.5 ng/mL) [5]; 100 nM,11.4%
same,percent inhibition of viability,NK-92 (IL-2 2.5 ng/mL) [5]; 1000 nM,41%
same,percent inhibition of viability,NK-92 (IL-2 2.5 ng/mL) [5]; 10000 nM,102%
same,percent inhibition of viability,[6]; 1 nM,2.06%
same,percent inhibition of viability,[6]; 10 nM,3.65%
same,percent inhibition of viability,[6]; 100 nM,16.7%
same,percent inhibition of viability,[6]; 1000 nM,40.9%
same,percent inhibition of viability,[6]; 10000 nM,97.5%
same,percent inhibition of viability,NKL (IL-2 2.5 ng/mL) [7]; 1 nM,-10.5%
same,percent inhibition of viability,NKL (IL-2 2.5 ng/mL) [7]; 10 nM,-16%
same,percent inhibition of viability,NKL (IL-2 2.5 ng/mL) [7]; 100 nM,-8.09%
same,percent inhibition of viability,NKL (IL-2 2.5 ng/mL) [7]; 1000 nM,62.8%
same,percent inhibition of viability,NKL (IL-2 2.5 ng/mL) [7]; 10000 nM,104%
same,percent inhibition of viability,[8]; 1 nM,8.2%
same,percent inhibition of viability,[8]; 10 nM,-4.24%
same,percent inhibition of viability,[8]; 100 nM,18.1%
same,percent inhibition of viability,[8]; 1000 nM,59.2%
same,percent inhibition of viability,[8]; 10000 nM,90.9%
same,percent inhibition of viability,KAI3 (IL-2 2.5 ng/mL) [9]; 1 nM,0.64%
same,percent inhibition of viability,KAI3 (IL-2 2.5 ng/mL) [9]; 10 nM,-3.56%
same,percent inhibition of viability,KAI3 (IL-2 2.5 ng/mL) [9]; 100 nM,4.44%
same,percent inhibition of viability,KAI3 (IL-2 2.5 ng/mL) [9]; 1000 nM,55.4%
same,percent inhibition of viability,KAI3 (IL-2 2.5 ng/mL) [9]; 10000 nM,96.6%
same,percent inhibition of viability,NK-YS (IL-2 2.5 ng/mL) [10]; 1 nM,2.13%
same,percent inhibition of viability,NK-YS (IL-2 2.5 ng/mL) [10]; 10 nM,-8.18%
same,percent inhibition of viability,NK-YS (IL-2 2.5 ng/mL) [10]; 100 nM,0.48%
same,percent inhibition of viability,NK-YS (IL-2 2.5 ng/mL) [10]; 1000 nM,22.7%
same,percent inhibition of viability,NK-YS (IL-2 2.5 ng/mL) [10]; 10000 nM,98.8%
same,percent inhibition of viability,DERL-7 (IL-2 2.5 ng/mL) [11]; 1 nM,-3.48%
same,percent inhibition of viability,DERL-7 (IL-2 2.5 ng/mL) [11]; 10 nM,-3.35%
same,percent inhibition of viability,DERL-7 (IL-2 2.5 ng/mL) [11]; 100 nM,-1.28%
same,percent inhibition of viability,DERL-7 (IL-2 2.5 ng/mL) [11]; 1000 nM,14.9%
same,percent inhibition of viability,DERL-7 (IL-2 2.5 ng/mL) [11]; 10000 nM,99.9%
same,percent inhibition of viability,[12]; 1 nM,-7.32%
same,percent inhibition of viability,[12]; 10 nM,-6.43%
same,percent inhibition of viability,[12]; 100 nM,5.49%
same,percent inhibition of viability,[12]; 1000 nM,23.4%
same,percent inhibition of viability,[12]; 10000 nM,94%
same,percent inhibition of viability,YT (IL-2 2.5 ng/mL) [13]; 1 nM,0.06%
same,percent inhibition of viability,YT (IL-2 2.5 ng/mL) [13]; 10 nM,-7.38%
same,percent inhibition of viability,YT (IL-2 2.5 ng/mL) [13]; 100 nM,-4.05%
same,percent inhibition of viability,YT (IL-2 2.5 ng/mL) [13]; 1000 nM,18.3%
same,percent inhibition of viability,YT (IL-2 2.5 ng/mL) [13]; 10000 nM,101%
same,percent inhibition of viability,[14]; 1 nM,-3.43%
same,percent inhibition of viability,[14]; 10 nM,-1.33%
same,percent inhibition of viability,[14]; 100 nM,-2.48%
same,percent inhibition of viability,[14]; 1000 nM,24.8%
same,percent inhibition of viability,[14]; 10000 nM,99.9%
same,drug sensitivity score,[15],9.32
same,drug sensitivity score,SNK-6 (IL-2 2.5 ng/mL) [16],9.9
same,drug sensitivity score,KHYG-1 (IL-2 2.5 ng/mL) [17],11.5
same,drug sensitivity score,[18],6.65
same,drug sensitivity score,IMC-1 (IL-2 20 ng/mL) [19],6.83
same,drug sensitivity score,NK-92 (IL-2 2.5 ng/mL) [20],10.4
same,drug sensitivity score,[21],10.4
same,drug sensitivity score,NKL (IL-2 2.5 ng/mL) [22],12.8
same,drug sensitivity score,[23],13.4
same,drug sensitivity score,KAI3 (IL-2 2.5 ng/mL) [24],12
same,drug sensitivity score,NK-YS (IL-2 2.5 ng/mL) [25],9.02
same,drug sensitivity score,DERL-7 (IL-2 2.5 ng/mL) [26],8.01
same,drug sensitivity score,[27],8.8
same,drug sensitivity score,YT (IL-2 2.5 ng/mL) [28],8.53
